This note sets out measurements from ChEMBL document CHEMBL6109120, “Discovery of Novel SIK2/3 Inhibitors for the Potential Treatment of MEF2C+ Acute Myeloid Leukemia (AML)” (J Med Chem, 2025).

Test [1] has as its target Tyrosine-protein kinase Lck (Homo sapiens, UniProt P06239). The experiment in a line: Binding affinity to human LCK by KINOMEscan assay.
For test [2], the target named is Serine/threonine-protein kinase SIK2 (Homo sapiens, UniProt Q9H0K1). The experiment in a line: Inhibition of recombinant full length human SIK2 assessed as luminescence signal using AMARAtide/ATP as substrate measured after 120 mins by microplate reader.
Sequence of Serine/threonine-protein kinase SIK2 (Q9H0K1 whole entry): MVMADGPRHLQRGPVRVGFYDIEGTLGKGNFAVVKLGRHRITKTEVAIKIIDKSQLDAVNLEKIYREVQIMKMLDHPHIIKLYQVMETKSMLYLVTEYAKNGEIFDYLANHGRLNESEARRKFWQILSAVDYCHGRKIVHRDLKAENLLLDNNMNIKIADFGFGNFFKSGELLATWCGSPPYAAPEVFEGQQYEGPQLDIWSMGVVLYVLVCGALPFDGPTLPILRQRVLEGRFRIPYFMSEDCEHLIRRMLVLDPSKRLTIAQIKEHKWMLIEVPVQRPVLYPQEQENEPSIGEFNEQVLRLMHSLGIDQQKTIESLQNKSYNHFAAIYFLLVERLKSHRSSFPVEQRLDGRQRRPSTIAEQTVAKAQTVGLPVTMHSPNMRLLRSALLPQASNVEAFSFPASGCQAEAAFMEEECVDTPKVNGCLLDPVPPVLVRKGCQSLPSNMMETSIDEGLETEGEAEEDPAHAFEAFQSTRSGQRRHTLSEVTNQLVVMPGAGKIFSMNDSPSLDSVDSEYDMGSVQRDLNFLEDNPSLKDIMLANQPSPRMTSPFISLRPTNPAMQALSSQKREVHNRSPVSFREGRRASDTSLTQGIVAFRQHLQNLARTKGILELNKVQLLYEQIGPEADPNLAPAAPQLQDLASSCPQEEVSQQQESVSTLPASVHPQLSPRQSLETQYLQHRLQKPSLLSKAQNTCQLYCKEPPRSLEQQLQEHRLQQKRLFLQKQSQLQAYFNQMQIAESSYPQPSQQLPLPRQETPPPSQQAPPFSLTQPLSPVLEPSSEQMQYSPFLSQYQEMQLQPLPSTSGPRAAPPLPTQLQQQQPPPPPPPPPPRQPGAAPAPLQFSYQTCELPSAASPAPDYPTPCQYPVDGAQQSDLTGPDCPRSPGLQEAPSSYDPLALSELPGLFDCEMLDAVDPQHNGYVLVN
The target of test [3] is Serine/threonine-protein kinase SIK3 (Homo sapiens, UniProt Q9Y2K2). The experiment in a line: Inhibition of recombinant human SIK3 assessed as luminescence signal using AMARAtide/ATP as substrate measured after 120 mins by microplate reader.
Sequence of Serine/threonine-protein kinase SIK3 (Q9Y2K2 whole entry): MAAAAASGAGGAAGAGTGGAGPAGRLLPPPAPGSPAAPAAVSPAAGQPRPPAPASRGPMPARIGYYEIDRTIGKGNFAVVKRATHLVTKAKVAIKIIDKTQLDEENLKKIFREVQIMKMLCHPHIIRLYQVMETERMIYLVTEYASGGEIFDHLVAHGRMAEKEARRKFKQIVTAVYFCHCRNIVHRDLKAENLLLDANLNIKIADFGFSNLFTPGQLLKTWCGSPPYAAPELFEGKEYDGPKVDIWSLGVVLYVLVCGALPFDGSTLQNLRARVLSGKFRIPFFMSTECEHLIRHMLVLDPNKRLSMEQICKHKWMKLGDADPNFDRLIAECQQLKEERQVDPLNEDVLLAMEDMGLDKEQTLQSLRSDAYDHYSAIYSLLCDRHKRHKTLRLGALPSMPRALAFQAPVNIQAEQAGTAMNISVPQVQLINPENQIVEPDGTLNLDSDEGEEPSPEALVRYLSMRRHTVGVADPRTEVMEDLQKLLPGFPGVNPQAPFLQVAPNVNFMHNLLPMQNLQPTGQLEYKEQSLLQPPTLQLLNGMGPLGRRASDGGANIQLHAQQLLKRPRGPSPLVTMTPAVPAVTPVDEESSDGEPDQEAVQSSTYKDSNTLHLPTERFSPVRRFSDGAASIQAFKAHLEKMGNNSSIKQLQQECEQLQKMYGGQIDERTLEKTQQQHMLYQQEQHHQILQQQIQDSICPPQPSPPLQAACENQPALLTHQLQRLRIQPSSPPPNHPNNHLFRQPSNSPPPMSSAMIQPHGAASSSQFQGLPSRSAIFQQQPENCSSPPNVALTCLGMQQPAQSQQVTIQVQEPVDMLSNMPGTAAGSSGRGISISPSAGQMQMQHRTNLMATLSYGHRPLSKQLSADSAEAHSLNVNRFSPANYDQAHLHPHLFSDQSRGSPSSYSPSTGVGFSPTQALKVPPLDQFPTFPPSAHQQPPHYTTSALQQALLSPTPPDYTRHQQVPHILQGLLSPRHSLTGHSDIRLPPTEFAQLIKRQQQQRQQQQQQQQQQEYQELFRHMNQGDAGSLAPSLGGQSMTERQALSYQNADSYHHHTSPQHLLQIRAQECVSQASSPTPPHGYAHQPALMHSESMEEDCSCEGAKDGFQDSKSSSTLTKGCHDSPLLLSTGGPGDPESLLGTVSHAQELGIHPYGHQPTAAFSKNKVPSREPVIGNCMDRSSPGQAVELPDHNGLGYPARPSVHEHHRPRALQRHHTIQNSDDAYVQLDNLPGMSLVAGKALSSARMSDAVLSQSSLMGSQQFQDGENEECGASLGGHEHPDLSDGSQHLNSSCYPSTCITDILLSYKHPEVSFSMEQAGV
The target in test [4] is Serine/threonine-protein kinase SIK1 (Homo sapiens, UniProt P57059). Kind of test: Inhibition of human SIK1 (02 to 131) assessed as luminescence signal using AMARAtide/ATP as substrate measured after 120 mins by microplate reader.
Sequence of Serine/threonine-protein kinase SIK1 (P57059 whole entry): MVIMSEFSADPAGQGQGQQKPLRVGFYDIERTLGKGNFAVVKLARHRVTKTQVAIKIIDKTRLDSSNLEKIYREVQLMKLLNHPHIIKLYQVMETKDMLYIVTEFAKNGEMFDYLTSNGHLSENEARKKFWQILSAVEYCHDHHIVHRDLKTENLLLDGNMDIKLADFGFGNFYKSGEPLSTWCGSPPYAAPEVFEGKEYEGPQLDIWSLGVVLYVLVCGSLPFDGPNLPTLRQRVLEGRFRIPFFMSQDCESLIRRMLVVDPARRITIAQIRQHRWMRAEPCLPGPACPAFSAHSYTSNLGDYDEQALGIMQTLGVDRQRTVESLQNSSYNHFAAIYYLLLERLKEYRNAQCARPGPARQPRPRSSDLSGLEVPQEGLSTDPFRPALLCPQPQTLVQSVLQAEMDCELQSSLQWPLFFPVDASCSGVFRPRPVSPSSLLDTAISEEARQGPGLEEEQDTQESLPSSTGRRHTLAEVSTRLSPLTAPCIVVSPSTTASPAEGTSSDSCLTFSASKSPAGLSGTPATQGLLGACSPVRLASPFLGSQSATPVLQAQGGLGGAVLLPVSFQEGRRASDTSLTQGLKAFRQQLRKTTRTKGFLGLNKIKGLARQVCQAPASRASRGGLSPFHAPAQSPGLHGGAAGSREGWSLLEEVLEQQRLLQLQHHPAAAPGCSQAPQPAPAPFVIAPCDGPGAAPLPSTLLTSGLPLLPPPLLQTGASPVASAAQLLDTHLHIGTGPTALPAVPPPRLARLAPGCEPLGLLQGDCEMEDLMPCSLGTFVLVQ
Test [5] in a line: Binding affinity to human ABL by KINOMEscan assay.

Sequence of Tyrosine-protein kinase Lck (P06239 whole entry): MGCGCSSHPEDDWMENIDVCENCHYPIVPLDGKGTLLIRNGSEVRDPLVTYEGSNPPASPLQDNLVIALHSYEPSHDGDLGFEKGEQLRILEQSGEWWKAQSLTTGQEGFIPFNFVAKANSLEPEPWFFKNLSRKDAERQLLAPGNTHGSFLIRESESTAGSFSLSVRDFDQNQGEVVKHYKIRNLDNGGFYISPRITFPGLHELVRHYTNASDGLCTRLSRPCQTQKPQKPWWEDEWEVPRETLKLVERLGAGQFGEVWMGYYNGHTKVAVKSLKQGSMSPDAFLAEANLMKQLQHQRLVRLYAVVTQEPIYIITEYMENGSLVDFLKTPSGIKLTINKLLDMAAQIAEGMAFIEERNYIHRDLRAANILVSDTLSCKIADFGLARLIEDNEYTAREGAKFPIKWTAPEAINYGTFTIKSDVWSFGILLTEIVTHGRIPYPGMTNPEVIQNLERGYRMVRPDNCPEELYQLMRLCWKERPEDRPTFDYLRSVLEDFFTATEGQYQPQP

The IC50 is the concentration that gives 50% inhibition. Consider `Cc1cc(-c2cc(O)ccc2Cl)cc2nnc(Nc3ccc(OCCN4CCCC4)cc3)nc12`, for which the IC50 in test [1] amounted to 2.7 nM.

Regarding `COc1cc(-c2cc(-c3cnn(C4CCOCC4)c3)cnc2N)cc2c1C(=O)N(CC#N)CC2`, the values for the concentration for half-maximal inhibition (IC50) in test [2], in test [3] and in test [4] were 4.9 nM, 5.7 nM and 118 nM, respectively.

On to `COc1cc(-c2cc(-c3cnn(S(C)(=O)=O)c3)cnc2N)cc2c1C(=O)N(CC(F)(F)F)CC2`, for which the half-maximal inhibitory concentration (IC50) in test [2] is 39 nM.

On to `CNC(=O)c1cc(Oc2ccc(NC(=O)Nc3cc(C(C)(C)C)nn3-c3ccc4ncccc4c3)c(F)c2)ccn1` [REBASTINIB], for which the IC50 in test [5] is 26.8 nM.
